Test results: patent US7932279B2 (ArQule, Inc., priority 2007, dated 2011)

What follows are molecules tested against T1, HSP90α (Homo sapiens, UniProt P07900) (assay: HSP90 binding assay (fluorescent ELISA, competition with biotinylated Geldanamycin)). Conditions: reported as range of IC50's.
T1 construct: purchased Stressgen Lot B506492
Description: The biochemical assay is described as follows.
Purified HSP90α […] was purchased from Stressgen Lot B506492. Single use aliquots of the 1.15 mg/ml stock were prepared and stored at −80° C. to avoid multiple freeze-thaw cycles.
A Nunc Maxisorb plate was coated overnight at 4° C. with 200 ng of HSP90/well dissolved in DPBS. The following day the plates were washed with TBST and blocked for 2 h at room temperature with blocking buffer (20 mM HEPES pH 7.3, 1 mM EDTA, 5 mM MgCl2, 100 mM KCl, 5% BSA). Blocking buffer was removed by washing plates with TBST, and test compounds dissolved in assay buffer (20 mM HEPES pH 7.3, 1 mM EDTA, 5 mM MgCl2, 100 mM KCl, 1% BSA) were added to plate. […] The reaction is incubated for 60 minutes at room temperature. […] Competitive inhibitory compounds will block this interaction from occurring.
The reactions were stopped by washing the plate with TBST. The binding of the bio-GM is detected by the addition of an Alkaline Phosphatase tagged Streptavidin molecule. A TBST wash eliminates any unbound detection agent, and the Alkaline Phosphate substrate Attophos is introduced. This substrate generates a fluorescent signal at […] when excited at […]. These plates can be monitored on either a Victor 5 or Perkin Elmer Envision multilabel reader.

**Q.** “4-[1-(3-Methoxy-propyl)-1H-tetrazol-5-yl]-6-naphthalen-2-yl-benzene-1,3-diol [Compound 78]” was tested. Which IC50 did it give?
**A.** The IC50 was 10 to 50 µM.

**Q.** For “5-[1-(3,3-Dimethyl-butyl)-1H-tetrazol-5-yl]-5′-isopropyl-2′-methoxy-biphenyl-2,4-diol [Compound 96]”, which IC50 is on record?
**A.** The IC50 was 1 to 10 µM.

**Q.** For “5′-(1-Butyl-1H-tetrazol-5-yl-2′,4′-dihydroxy-biphenyl-3-carboxylic acid (3-dimethylamino-propyl)-methyl-amide [Compound 52]”, which IC50 is on record?
**A.** The IC50 was > 50 µM.

**Q.** Which IC50 does the source give for `COCCCn1nnnc1-c1cc(-c2cccc(C)c2)c(O)cc1O` [Compound 8, 5-[1-(3-Methoxy-propyl)-1H-tetrazol-5-yl]-3′-methyl-biphenyl-2,4-diol] here?
**A.** Its IC50 is 10 to 50 µM.

**Q.** For `COCCn1nnnc1-c1cc(-c2cc(C(C)C)ccc2OC)c(O)cc1O` [Compound 9], which IC50 is on record?
**A.** The IC50 was 1 to 10 µM.

**Q.** How did the IC50 turn out when `COCCn1nnnc1-c1cc(-c2cc(C(F)(F)F)ccc2F)c(O)cc1O` [Compound 10, 2′-Fluoro-5-[1-(2-methoxy-ethyl)-1H-tetrazol-5-yl]-5′-trifluoromethyl-biphenyl-2,4-diol] was run?
**A.** The IC50 was > 50 µM.

**Q.** Which IC50 does the source give for `COCCn1nnnc1-c1cc(-c2cccc(OC(F)(F)F)c2)c(O)cc1O` [Compound 11] here?
**A.** Its IC50 is > 50 µM.

**Q.** Which IC50 does the source give for `COCCn1nnnc1-c1cc(-c2cccc(C(F)(F)F)c2)c(O)cc1O` [Compound 12] here?
**A.** Its IC50 is > 50 µM.

**Q.** `COCCCn1nnnc1-c1cc(-c2ccccc2C(F)(F)F)c(O)cc1O` [Compound 13, 5-[1-(3-Methoxy-propyl)-1H-tetrazol-5-yl]-2′-trifluoromethyl-biphenyl-2,4-diol] was tested. Which IC50 did it give?
**A.** The IC50 was > 50 µM.

**Q.** Which IC50 does the source give for `COCCCn1nnnc1-c1cc(-c2cccc(OC(F)(F)F)c2)c(O)cc1O` [Compound 17] here?
**A.** Its IC50 is 1 to 10 µM.

**Q.** Which IC50 does the source give for `COCCCn1nnnc1-c1cc(-c2ccc(C(F)(F)F)cc2)c(O)cc1O` [Compound 18, 5-[1-(3-methoxy-propyl)-1H-tetrazol-5-yl]-4′-trifluoromethyl-biphenyl-2,4-diol] here?
**A.** Its IC50 is > 50 µM.

**Q.** With `COCCCn1nnnc1-c1cc(-c2cccc(C(=O)OC)c2)c(O)cc1O` [Compound 21] as the molecule, how does the IC50 read?
**A.** Its IC50 is 10 to 50 µM.

**Q.** Which IC50 does the source give for `CCCCn1nnnc1-c1cc(-c2cccc(C(=O)OC)c2)c(O)cc1O` [Compound 22] here?
**A.** The IC50 was 10 to 50 µM.

**Q.** Which IC50 does the source give for `COCCCn1nnnc1-c1cc(Br)c(O)cc1O` [Compound 25] here?
**A.** Its IC50 is > 50 µM.

**Q.** With `COc1ccc(C(=O)N2CCC(n3nnnc3-c3cc(-c4cc(C(C)C)ccc4OC)c(O)cc3O)CC2)cc1` [Compound 37, {4-[5-(4,6-dihydroxy-5′-isopropyl-2′-methoxy-biphenyl-3-yl)-tetrazol-1-yl]-piperidin-1-yl}-(4-methoxy-phenyl)-methanone] as the molecule, how does the IC50 read?
**A.** The IC50 was 1 to 10 µM.

**Q.** Which IC50 does the source give for `CCN1CCC(n2nnnc2-c2cc(-c3cc(C(C)C)ccc3OC)c(O)cc2O)CC1` [Compound 38] here?
**A.** Its IC50 is 1 to 10 µM.

**Q.** For `CCNC(=O)N1CCC(n2nnnc2-c2cc(-c3cc(C(C)C)ccc3OC)c(O)cc2O)CC1` [Compound 39], which IC50 is on record?
**A.** The IC50 was 1 to 10 µM.

**Q.** With `COc1ccc(C(C)C)cc1-c1cc(-c2nnnn2C2CCN(C(=O)CC(C)C)CC2)c(O)cc1O` [Compound 40, 1-{4-[5-(4,6-Dihydroxy-5′-isopropyl-2′-methoxy-biphenyl-3-yl)-tetrazol-1yl]-piperidin-1-yl}-3-methyl-butan-1-one] as the molecule, how does the IC50 read?
**A.** Its IC50 is 10 to 50 µM.

**Q.** `COc1ccc(C(C)C)cc1-c1cc(-c2nnnn2C2CCNCC2)c(O)cc1O` [Compound 41] was tested. Which IC50 did it give?
**A.** Its IC50 is 1 to 10 µM.

**Q.** How did the IC50 turn out when `COc1ccc(C(C)C)cc1-c1cc(-c2nnnn2C2CCN(C(=O)OC(C)(C)C)C2)c(O)cc1O` (stereo not shown) [Compound 42, 3-[5-(4,6-Dihydroxy-5′-isopropyl-2′-methoxy-biphenyl-3-yl)-tetrazol-1-yl]-pyrrolidine-1-carboxylic Acid Tert-Butyl Ester] was run?
**A.** Its IC50 is 10 to 50 µM.

**Q.** `COc1ccc(C(C)C)cc1-c1cc(-c2nnnn2C2CCN(C(=O)OC(C)(C)C)CC2)c(O)cc1O` [Compound 43] was tested. Which IC50 did it give?
**A.** Its IC50 is 10 to 50 µM.

**Q.** Which IC50 does the source give for `CCCCn1nnnc1-c1cc(-c2cccc(C(=O)O)c2)c(O)cc1O` [Compound 46] here?
**A.** Its IC50 is > 50 µM.

**Q.** `COCCCn1nnnc1-c1cc(-c2cccc(C(=O)O)c2)c(O)cc1O` [Compound 47] was tested. Which IC50 did it give?
**A.** The IC50 was > 50 µM.

**Q.** Which IC50 does the source give for `CCCCn1nnnc1-c1cc(-c2cccc(C(=O)NC(C)COC)c2)c(O)cc1O` (stereo not shown) [Compound 48, 5′-(1-Butyl-1H-tetrazol-5-yl)-2′,4′-dihydroxy-biphenyl-3-carboxylic acid (2-methoxy-1-methyl-ethyl)-amide] here?
**A.** Its IC50 is > 50 µM.

**Q.** `CCCCn1nnnc1-c1cc(-c2cccc(C(=O)N3CCC(N4CCCC4)CC3)c2)c(O)cc1O` [Compound 49, [5′-(1-Butyl-1H-tetrazol-5-yl)-2′,4′-dihydroxy-biphenyl-3-yl]-(4-pyrrolidin-1-yl-piperidin-1-yl)-methanone] was tested. Which IC50 did it give?
**A.** Its IC50 is > 50 µM.

**Q.** Which IC50 does the source give for `CCCCn1nnnc1-c1cc(-c2cccc(C(=O)N3CCN(CC)CC3)c2)c(O)cc1O` [Compound 50] here?
**A.** Its IC50 is > 50 µM.

**Q.** How did the IC50 turn out when `CCCCn1nnnc1-c1cc(-c2cccc(C(=O)N3CCCC(C(=O)N(CC)CC)C3)c2)c(O)cc1O` (stereo not shown) [Compound 51] was run?
**A.** Its IC50 is > 50 µM.

**Q.** Which IC50 does the source give for `CCCCn1nnnc1-c1cc(-c2cccc(C(=O)N3CCN(S(=O)(=O)CC)CC3)c2)c(O)cc1O` [Compound 53, [5′-(1-Butyl-1H-tetrazol-5-yl)-2′,4′-dihydroxy-biphenyl-3-yl]-(4-ethanesulfonyl-piperazin-1-yl)-methanone] here?
**A.** Its IC50 is > 50 µM.

**Q.** How did the IC50 turn out when `CCCCn1nnnc1-c1cc(-c2cccc(C(=O)NCCCN3CCOCC3)c2)c(O)cc1O` [Compound 54] was run?
**A.** Its IC50 is > 50 µM.

**Q.** With `CCCCn1nnnc1-c1cc(-c2cccc(C(=O)NCCCN3CCCC3)c2)c(O)cc1O` [Compound 55] as the molecule, how does the IC50 read?
**A.** Its IC50 is > 50 µM.

**Q.** How did the IC50 turn out when `CCCCn1nnnc1-c1cc(-c2cccc(C(=O)N3CCN(CCCN4CCOCC4)CC3)c2)c(O)cc1O` [Compound 56, [5′-(1-Butyl-1H-tetrazol-5-yl)-2′,4′-dihydroxy-biphenyl-3-yl]-[4-(3-morpholin-4-ylpropyl)-piperazin-1-yl]-methanone] was run?
**A.** Its IC50 is > 50 µM.

**Q.** `CCCCn1nnnc1-c1cc(-c2cccc(C(=O)NCCc3cccc(OC)c3)c2)c(O)cc1O` [Compound 57] was tested. Which IC50 did it give?
**A.** The IC50 was > 50 µM.

**Q.** `CCCCn1nnnc1-c1cc(-c2cccc(C(=O)NCCN(C)C)c2)c(O)cc1O` [Compound 58] was tested. Which IC50 did it give?
**A.** Its IC50 is > 50 µM.

**Q.** `CCCCn1nnnc1-c1cc(-c2cccc(C(=O)NCCC3CCCN3C)c2)c(O)cc1O` (stereo not shown) [Compound 59] was tested. Which IC50 did it give?
**A.** Its IC50 is > 50 µM.

**Q.** With `CCCCn1nnnc1-c1cc(-c2cccc(C(=O)NC(C)CN(C)C)c2)c(O)cc1O` (stereo not shown) [Compound 60, 5′-(1-Butyl-1H-tetrazol-5-yl)-2′,4′-dihydroxy-biphenyl-3-carboxylic acid (2-dimethylamino-1-methyl-ethyl)-amide] as the molecule, how does the IC50 read?
**A.** The IC50 was > 50 µM.

**Q.** `CCCCn1nnnc1-c1cc(-c2cccc(C(=O)N(CCO)CC(C)CC)c2)c(O)cc1O` (stereo not shown) [Compound 61] was tested. Which IC50 did it give?
**A.** Its IC50 is > 50 µM.

**Q.** With `COCCCn1nnnc1-c1cc(-c2cccc(C(=O)NC(C)COC)c2)c(O)cc1O` (stereo not shown) [Compound 62] as the molecule, how does the IC50 read?
**A.** Its IC50 is > 50 µM.

**Q.** With `COCCCn1nnnc1-c1cc(-c2cccc(C(=O)N(C)CCN(C)C)c2)c(O)cc1O` [Compound 63] as the molecule, how does the IC50 read?
**A.** The IC50 was > 50 µM.

**Q.** `COCCCn1nnnc1-c1cc(-c2cccc(C(=O)N(C)CCCN(C)C)c2)c(O)cc1O` [Compound 64, 2′,4′-Dihydroxy-5′-[1-(3-methoxy-propyl)-1H-tetrazol-5-yl]-biphenyl-3-carboxylic Acid (3-dimethylamino-propyl)-methyl-amide] was tested. Which IC50 did it give?
**A.** Its IC50 is > 50 µM.

**Q.** How did the IC50 turn out when `COCCCn1nnnc1-c1cc(-c2cccc(C(=O)NCCCN(C)C)c2)c(O)cc1O` [Compound 65] was run?
**A.** The IC50 was > 50 µM.
